Measurements as given in patent publication US20070148154A1, “Use of superoxide dismutase mimetics and reductase gultatione in the form of anticancer drugs” (UNIVERSITE RENE DESCARTES (PARIS V), priority 2004, published 2007).

Columns and labels:
[1] = tested on: A549 (human lung carcinoma); test: In vitro cell proliferation assay ([3H]-thymidine); assay type: cell-based; settings: 10 μM, no antioxidant
Method: (§4) In vitro cell proliferation assays were carried out on the following cell lines: CT26 (mouse colon carcinoma, ATCC (American Type Culture Collection) No. 2638), Hepa 1-6 (mouse liver hepatoma, ATCC No. 1830), A549 (human lung carcinoma, ATCC No. 185).
(§5) The cell proliferation is determined by incubating the cells for 16 hours with [^3H]-thymidine (1 μCi/well).

[2] = tested on: CT26 carcinoma tumor cells in BALB/c mice; test: In vivo antitumor activity, subcutaneous CT26 tumors; design: species or system mouse; settings: single injection of 20 mg/kg
Method: (§1) The in vivo antitumor activity of various antioxidant treatments was estimated. For these experiments, female six- to eight-week-old BALB/c (for the injection of CT-26 tumor cells) or C57/BL6 (for the injection of Hepa 1-6 tumor cells) mice were used (IFFA CREDO, L'Arbresles, France). Two million tumor cells were injected into the back of the animals subcutaneously. When the size of the tumor reached 200 to 500 mm^3, the animals were given a single injection of 20 mg/kg of oxaliplatin (ELOXATIN®) or of a saline solution.
(§2) The mice were then treated intraperitoneally, two hours after the injection of oxaliplatin or of saline solution, with 10 mg/kg of mangafodipir, of MnTBAP or of CuDIPS, or with 150 mg/kg of NAC, or with a saline solution. The injection of the various antioxidants was continued for one month (three injections per week at the same doses). A group of mice inoculated with tumor cells was not treated.
(§3) The size of the tumors was measured every three days. The tumor volume was calculated as follows: VT (mm^3)=(L×W^2)/2, where L is the longest dimension and W the shortest dimension of the tumor in mm. Fifteen mice were included in each group.

normal human leukocytes = test: In vitro viability test (MTT); settings: 1 mM, no antioxidant
Method: (§6) In vitro viability tests, in response to the treatment with NAC, CuDIPS, MnTBAP or MnDPDP, were carried out on the cell lines of Example 1 and on normal human leukocytes. The latter were obtained from normal volunteers, after informed consent, by taking venous blood samples collected on an anticoagulant (lithium-heparinate). The red blood cells were lysed by osmotic shock using a hypotonic solution of potassium acetate and the leukocytes were cultured under the conditions described in Example 1.
(§7) For the viability test, the cells (2×10^4 cells/well) were seeded into 96-well plates (COSTAR, Corning Inc. NY, USA) and incubated for 48 hours in complete medium supplemented with increasing concentrations, from 0 to 400 μm, of NAC, of MnTBAP, of CuDIPS or of MnDPDP. The cell viability was evaluated by reduction of a methylthiazoletetrazolium salt (MTT; SIGMA) into formazan. The cells were exposed to 20 μl of MTT (5 mg/ml in PBS) and incubated for 4 h at 37° C. 150 μl of medium were then removed from each well and the reaction was visualized by the addition of 100 μl of DMSO (SIGMA). The absorbance was analyzed for each well at 550 nm and at 630 nm with an ELISA plate reader. The number of viable cells was determined by the difference between the absorbance at 550 nm and the absorbance at 630 nm.
(§8) The viability tests were carried out on the CT26, Hepa 16 and A549 tumor lines, and on normal human leukocytes, according to the protocol described in Example 2.

Hepa 1-6 tumor cells = test: In vitro viability test (MTT); assay type: cell-based, mouse; settings: 10 μM, no antioxidant
Method: as §6, §7, §8

[3] = tested on: CT26 (mouse colon carcinoma); test: In vitro cell proliferation assay ([3H]-thymidine); assay type: cell-based; settings: 10 μM, no antioxidant
Method: as §4, §5

[4] = tested on: Hepa 1-6 cells in C57BL/6 mice; test: In vivo antitumor activity, subcutaneous Hepa 1-6 tumors; design: species or system mouse; settings: single injection of 20 mg/kg
Method: as §1, §2, §3

plasmid pcDNA3.1 = test: Plasmid DNA alteration (agarose gel electrophoresis, densitometry); settings: 37° C., 24 h; SOD mimetics 5 μM; oxaliplatin maximum at DNA/oxaliplatin ratio 0.5
Method: The purified plasmid pcDNA3.1 (INVITROGEN) was used to analyze the potential DNA alterations in response to the addition of molecules used in cancer chemotherapy in the presence, or in the absence, of antioxidant enzyme modulators. This DNA was then stored at −20° C. in 10 mM TRIS, 1 mM EDTA until its use.
The plasmid DNA was incubated with oxaliplatin at a molar ratio of 0.50 in a final volume of 50 μl. MnTBAP (5 μM), CuDIPS (5 μM), mangafodipir (5 μM) or NAC (5 mM) were then added to the solution. The production of superoxide anion was realized by the addition of 200 μM xanthine (SIGMA) and 1 U of xanthine oxidase (SIGMA). The incubation was carried out in the dark at 37° C. for 24 h. At the end of the incubation period, 10 μl aliquots were subjected to 0.8% agarose gel electrophoresis and detected by ethidium bromide staining. The gels were then analyzed by densitometry (VILBER LOURMAT, Marnes-la-Vallée, France).

A549 tumor cells = test: In vitro viability test (MTT); assay type: cell-based, human; settings: 10 μM, no antioxidant
Method: as §6, §7, §8

[5] = tested on: Hepa 1-6 (mouse liver hepatoma); test: In vitro cell proliferation assay ([3H]-thymidine); assay type: cell-based; settings: 10 μM, no antioxidant
Method: as §4, §5

CT26 tumor cells = test: In vitro viability test (MTT); assay type: cell-based, mouse; settings: 10 μM, no antioxidant
Method: as §6, §7, §8

N[C@@H]1CCCC[C@H]1N.O=C([O-])C(=O)[O-].[Pt+2] [oxaliplatin, [(1R,2R)-1,2-cyclohexanediamine-N,N′][oxalate-(2-)—O,O′]platinum (II)]
decrease in tumor cell proliferation, antitumor agent alone [1]: 93%
tumor volumes compared with the nontreated animals [2]: divides the tumor volumes in half
decrease in viability of normal leukocytes, antitumor agent alone (normal human leukocytes): approximately 50%
decrease in cell viability, antitumor agent alone, on average (Hepa 1-6 tumor cells): 50%
decrease in tumor cell proliferation, antitumor agent alone [3]: 91%
tumor volumes compared with the nontreated animals [4]: divides the tumor volumes by four
effect on the structure of plasmid DNA (form I / II / III) (plasmid pcDNA3.1): dose-dependent impairment
decrease in cell viability, antitumor agent alone, on average (A549 tumor cells): 28%
decrease in tumor cell proliferation, antitumor agent alone [5]: 70%
decrease in cell viability, antitumor agent alone, on average (CT26 tumor cells): 27%
